The target in the assay is T1, mineralocorticoid receptor (MR) (Homo sapiens, UniProt P08235).
T1 construct: expressed in transfected cells; host or cells: HEK293 (human embryonic kidney cells)
T1 sequence (P08235 726-964 limits assumed): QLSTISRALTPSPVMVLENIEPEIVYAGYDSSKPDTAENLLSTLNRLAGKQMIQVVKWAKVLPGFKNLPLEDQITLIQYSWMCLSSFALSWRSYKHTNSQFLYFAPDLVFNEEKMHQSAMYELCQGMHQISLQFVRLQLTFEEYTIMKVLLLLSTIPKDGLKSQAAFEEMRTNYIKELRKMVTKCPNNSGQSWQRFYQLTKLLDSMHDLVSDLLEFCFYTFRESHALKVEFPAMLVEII
Nature of the assay: Activity test in vitro: Gal4 DBD-MR LBD dual luciferase reporter assay in HEK293 cells. The format is cell-based. The note with it: HEK293 cells transfected with Gal4 DBD-MR LBD and firefly luciferase reporter; agonist aldosterone at EC80; 18 hours incubation; Renilla-corrected. An excerpt: Example a Activity Test In Vitro
Utilizing the characteristics of luciferase binding to the substrate to produce a chemiluminescence reaction, the fused plasmid of the Gal4 DNA binding domain (DBD) containing the ligand binding domain (LBD) of mineralocorticoid receptor (MR) and the firefly luciferase reporter gene plasmid controlled by Gal4 UAS (upstream activation sequences) were transfected into human embryonic kidney cells (HEK293). The changes in mineralocorticoid receptor activity between before and after stimulation or the influence of different stimuli on mineralocorticoid receptor activity was judged by the level of firefly luciferase activity. At the same time, in order to reduce the impact of internal change factors on the accuracy of the experiment, the plasmid with Renilla luciferase gene was used as a control plasmid to transfect cells to provide an internal control for transcription activity, so that the test results were not interfered by changes in experimental conditions.
1) HEK293 cells were collected after trypsinization and the cell density was adjusted to 500,000 cells/mL;
2) FuGENE HD transfection reagent was added into the cell suspension;
3) The above cell suspension was seeded into a 96-well cell culture plate at a density of 100 μL/well, and incubated for 24 hours at 37° C. in 5% CO2;
4) A series of concentrations of the test compound solution and the EC80 concentration of agonist aldosterone were added into each well and incubated for 18 hours;
5) Firefly and Renilla luciferase signals were detected through Promega dual luciferase reporter assay system.
1) After obtaining the firefly luciferase signal (F) and the Renilla luciferase signal (R), using the Renilla luciferase signal for correction, i.e., the F/R value was used to calculate the subsequent inhibition rate;
2)% inhibition rate=(Max−X)/(Max−Min)×100%, where Max is the F/R value of the positive control well, Min is the F/R value of the negative control well, and X is the F/R value of test compound well of different concentrations;
3) IC50 calculation was performed by GraphPrism 5.0 mapping software.
In general terms: A reporter such as luciferase makes a cellular process visible.

The pIC50 is −log10 of the IC50, conventionally taken in molar units. A low value points to a high IC50.

SMILES strings stand for the structures. pIC50: −log10 of the molar value.

`COc1cc(C#N)ccc1C1C(C(N)=O)=C(C)Nc2c(C)cnc(OC3CCC3)c21` (centres unmarked) [Example 7, 4-(4-Cyano-2-methoxyphenyl)-5-(cyclobutyloxy)-2,8-dimethyl-1,4-dihydro-1,6-naphthyridine-3-carboxamide] gave a pIC50 of 8.46.
To `COc1cc(C#N)ccc1C1C(C(N)=O)=C(C)Nc2c(C)cnc(OCC3CCC3)c21` (centres unmarked) [Example 5, 4-(4-cyano-2-methoxyphenyl)-5-(cyclobutylmethoxy)-2,8-dimethyl-1,4-dihydro-1,6-naphthyridine-3-carboxamide] belongs 7.75; to `COc1cc(C#N)ccc1C1C(C(N)=O)=C(C)Nc2c(C)cnc(OCC3CCCC3)c21` (centres unmarked) [Example 3, 4-(4-Cyano-2-methoxyphenyl)-5-(cyclopentylmethoxy)-2,8-dimethyl-1,4-dihydro-1,6-naphthyridine-3-carboxamide], 7.54; to `COc1cc(C#N)ccc1C1C(C(N)=O)=C(C)Nc2c(C)cnc(OCC3CC3)c21` (centres unmarked) [Example 1, 4-(4-Cyano-2-methoxyphenyl)-5-(cyclopropylmethoxy)-2,8-dimethyl-1,4-dihydro-1,6-naphthyridine-3-carboxamide], 7.71.
For `COc1cc(C#N)ccc1C1C(C(N)=O)=C(C)Nc2c(C)cnc(OC3CCCC3)c21` (centres unmarked) [Example 8, 4-(4-Cyano-2-methoxyphenyl)-5-(cyclopentyloxy)-2,8-dimethyl-1,4-dihydro-1,6-naphthyridine-3-carboxamide], the pIC50 is 8.11.

The values above are taken from patent US20210206760A1, “PHENYL-SUBSTITUTED DIHYDRONAPHTHYRIDINE COMPOUND AND USE THEREOF” (SUNSHINE LAKE PHARMA CO., LTD., priority 2018, published 2021).
